According to US5789434A, “Derivatives of substituted 4-biarylbutyric acid as matrix metalloprotease inhibitors” (priority 1995, dated 1998):
Where a name gives a salt, the structure may show the parent alone.

Target: T1, MMP-3 (Homo sapiens, UniProt P08254)
T1 construct: Truncated Prostromelysin-257 was expressed in a soluble form in E.coli; made in house; host or cells: E. coli
Test: Primary Thiopeptilide MMP-3 Inhibition Assay
Format: biochemical
Conditions: at 5 μM; read-out: MMP-3 Thiopep. % inhibition

T1 sequence (P08254 100-274 limits assumed): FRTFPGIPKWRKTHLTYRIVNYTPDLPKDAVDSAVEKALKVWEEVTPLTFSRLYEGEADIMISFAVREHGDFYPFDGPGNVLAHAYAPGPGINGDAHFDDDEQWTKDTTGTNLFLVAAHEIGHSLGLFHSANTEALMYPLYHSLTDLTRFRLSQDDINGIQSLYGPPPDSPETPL

inhibition at 5 µM [%] | Structure (SMILES)
0 | CC(C)CC1CC(c2ccc(-c3ccc(Cl)cc3)cc2)OC1=O (stereo not shown) [Example 35, 2(3H)-Furanone, 5-(4'-chloro[1,1'-biphenyl]-4-yl)dihydro-3-(2-methylpropyl)-, reference compound]
43 | CCCCCCCCCCC(CC(=O)c1ccc(-c2ccc(Cl)cc2)cc1)C(=O)O (stereo not drawn) [Example 123, [1,1'-Biphenyl]-4-butanoic acid, 4'-chloro-α-decyl-γ-oxo-]
55 | CC(CC(=O)c1ccc(-c2ccc(Cl)cc2)cc1)(Sc1ccccc1)C(=O)O (stereo not drawn) [Example 245, [1,1'-Biphenyl]-4-butanoic acid, 4'-chloro-α-methyl-γ-oxo-α-(phenylthio)-]
14 | O=C(C[C@@H](C[S+]([O-])c1ccccc1)C(=O)O)c1ccc(-c2ccc(Cl)cc2)cc1 (stereo partly drawn) [Example 246, [1,1'-Biphenyl]-4-butanoic acid, 4'-chloro-γ-oxo-α-[(phenylsulfinyl)methyl]-, stereoisomer]
48 | CCN(CC)CCC(CC(=O)c1ccc(-c2ccc(Cl)cc2)cc1)C(=O)O (stereo not drawn) [Example 264, [1,1'-Biphenyl]-4-butanoic acid, 4'-chloro-α-[2-(diethylamino)ethyl]-γ-oxo-, hydrochloride]

Same assay, conditions: pH 6.5; 13 nM stromelysin; x (n) = average of n determinations; read-out: MMP-3 Thiopep. IC50

IC50 [nM] | Structure (SMILES)
2400 | C[C@@H](C(=O)O)[C@@H](C)C(=O)c1ccc(-c2ccc(Cl)cc2)cc1 (relative stereo) [Example 283, [1,1'-Biphenyl]-4-butanoic acid, 4'-chloro-α,β-dimethyl-γ-oxo-, (R*,R*)-]
403 | CCCCCCCC(CC(=O)c1ccc(-c2ccc(Cl)cc2)cc1)C(=O)O (stereo not drawn) [Example 122, [1,1'-Biphenyl]-4-butanoic acid, 4'-chloro-α-hepty-γ-oxo-]
600 | O=C(CC(CCc1ccccc1I)C(=O)O)c1ccc(-c2ccc(Cl)cc2)cc1 (stereo not drawn) [Example 126, [1,1'-Biphenyl]-4-butanoic acid, 4'-chloro-α-[2-(2-iodophenyl)ethyl]-γ-oxo-]
310 | COC(=O)c1ccccc1CCC(CC(=O)c1ccc(-c2ccc(Cl)cc2)cc1)C(=O)O (stereo not drawn) [Example 142, [1,1'-Biphenyl]-4-butanoic acid, 4'-chloro-α-[2-[2-(methoxycarbonyl)phenyl]ethyl]-γ-oxo-]
2000 | O=C(CC(CSc1cccc(C(F)(F)F)c1)C(=O)O)c1ccc(-c2ccc(Cl)cc2)cc1 (stereo not drawn) [Example 236, [1,1'-Biphenyl]-4-butanoic acid, 4'-chloro-γ-oxo-α-[[[3-(trifluoromethyl)phenyl]thio]methyl]-]
2000 | COC(=O)c1ccc(SCC(CC(=O)c2ccc(-c3ccc(Cl)cc3)cc2)C(=O)O)cc1 (stereo not drawn) [Example 237, [1,1'-Biphenyl]-4-butanoic acid, 4'-chloro-α-[[[4-(methoxycabonyl)phenyl]thio]methyl]-γ-oxo-]
920 | O=C(O)Cc1ccc(SCC(CC(=O)c2ccc(-c3ccc(Cl)cc3)cc2)C(=O)O)cc1 (stereo not drawn) [Example 238, [1,1'-Biphenyl]-4-butanoic acid, α-[[[4-(carboxymethyl)phenyl]thio]methyl]-4'-chloro-γ-oxo-]
830 | O=C(C[C@H](C[S+]([O-])c1ccccc1)C(=O)O)c1ccc(-c2ccc(Cl)cc2)cc1 (stereo partly drawn) [Example 248, [1,1'-Biphenyl]-4-butanoic acid, 4'-chloro-γ-oxo-α-[(phenylsulfinyl)methyl]-, stereoisomer]
1600 | O=C(C[C@H](C[S+]([O-])c1ccccc1)C(=O)O)c1ccc(-c2ccc(Cl)cc2)cc1 (stereo partly drawn) [Example 249, [1,1'-Biphenyl]-4-butanoic acid, 4'-chloro-γ-oxo-α-[(phenylsulfinyl)methyl]-, stereoisomer]

Target: T2, MMP-9 (Homo sapiens, UniProt P14780)
T2 construct: from tissue; host or cells: human polymorphonuclear leukocytes (PMN) from whole blood (New York Blood Center), PMA-stimulated supernatant
Test: Thiopeptilide MMP-9 Inhibition Assay
Format: biochemical
Conditions: at 5 μM; read-out: MMP-9: Thiopep. % inhibition

T2 sequence (P14780 107-707 limits assumed): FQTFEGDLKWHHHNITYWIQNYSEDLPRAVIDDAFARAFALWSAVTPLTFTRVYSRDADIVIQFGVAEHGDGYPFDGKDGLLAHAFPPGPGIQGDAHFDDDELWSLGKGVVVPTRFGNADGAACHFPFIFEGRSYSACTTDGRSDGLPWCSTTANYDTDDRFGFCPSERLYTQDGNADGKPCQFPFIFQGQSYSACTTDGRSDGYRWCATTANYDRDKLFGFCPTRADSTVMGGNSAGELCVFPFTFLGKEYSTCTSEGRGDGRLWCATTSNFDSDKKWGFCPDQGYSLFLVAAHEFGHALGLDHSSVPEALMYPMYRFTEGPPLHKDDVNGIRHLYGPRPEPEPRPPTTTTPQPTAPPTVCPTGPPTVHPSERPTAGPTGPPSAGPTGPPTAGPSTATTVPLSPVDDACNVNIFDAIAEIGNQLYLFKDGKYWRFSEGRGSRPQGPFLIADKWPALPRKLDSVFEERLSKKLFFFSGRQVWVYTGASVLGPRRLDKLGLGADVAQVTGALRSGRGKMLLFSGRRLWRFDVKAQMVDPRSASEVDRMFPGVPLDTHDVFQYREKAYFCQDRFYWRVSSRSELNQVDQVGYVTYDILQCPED

inhibition at 5 µM [%] | Structure (SMILES)
21 | O=C(C[C@@H](CSc1ccccc1)C(=O)O)c1ccc(-c2ccc(Cl)cc2)cc1 [Example 198, 4-[4-(4-chlorophenyl)phenyl]-4-oxo-2R-(phenylthiomethyl)butanoic acid]

Same assay, conditions: pH 6.5; x (n) = average of n determinations; read-out: MMP-9: Thiopep. IC50

IC50 [nM] | Structure (SMILES)
7000 | C[C@@H](C(=O)O)[C@@H](C)C(=O)c1ccc(-c2ccc(Cl)cc2)cc1 (relative stereo) [Example 283, [1,1'-Biphenyl]-4-butanoic acid, 4'-chloro-α,β-dimethyl-γ-oxo-, (R*,R*)-]
